In US11014925B2, “Co-crystals of 1-(4-fluoro-phenyl)-4-((6bR,1OaS)-3-methyl-2,3,6b,9,10,10a-hexahydro-1H,7H- pyrido[3′,4′:4,51_pyrrolo [1,2,3-delqcuinoxalin-8-yl)-butan-1-one with nicotinamide or isonicotinamide” (INTRA-CELLULAR THERAPIES, INC., priority 2016, dated 2021):
Like-named read-outs stand apart in the source and are kept apart here.

Assays:
[1] = Dynamic Vapour Sorption (DVS) hygroscopicity; assay type: physicochemical
Method: Dynamic Vapour Sorption (DVS): The Dynamic Vapour Sorption studies are performed using a Surface Measurement Systems Ltd. DVS-1 No Video, equipment #2126. The sample is loaded into a balance pan, typically 20-30 mg, and equilibrated at 0% RH. After the material was dried, the RH is increased with 10% per step for 1 hour per increment, ending at 95% RH. After completion of the sorption cycle, the sample was dried using the same method. The software used for data collection is DVSWin v3.01 No Video. Data analysis is performed using DVS Standard Analysis Suite v6.3.0 (Standard).

[2] = solubility, general statements; assay type: physicochemical; details: general statement, solvent not given
Method: Solubility of free base in various solvents is evaluated, and based on the results of the solubility range, suitable solvents are selected for the co-crystal screen. Co-crystal formation is based on hydrogen bonding and stacking of the molecules, meaning the co-former selection is based on active groups. Grinding is a method to form co-crystals, however the free base itself is an oil/sticky solid and therefore not suitable for this method. The free base and counter ion are added to a solution in a certain ratio to give the chance to form a co-crystal, similar to salt formation. We found the best method is to add a saturated solution of the co-former to that of the free base to find an optimal ratio for co-crystal formation.

[3] = target: H1 histaminergic receptors (Homo sapiens, UniProt P35367); details: cited from earlier work
H1 histaminergic receptors, sequence (P35367 whole entry): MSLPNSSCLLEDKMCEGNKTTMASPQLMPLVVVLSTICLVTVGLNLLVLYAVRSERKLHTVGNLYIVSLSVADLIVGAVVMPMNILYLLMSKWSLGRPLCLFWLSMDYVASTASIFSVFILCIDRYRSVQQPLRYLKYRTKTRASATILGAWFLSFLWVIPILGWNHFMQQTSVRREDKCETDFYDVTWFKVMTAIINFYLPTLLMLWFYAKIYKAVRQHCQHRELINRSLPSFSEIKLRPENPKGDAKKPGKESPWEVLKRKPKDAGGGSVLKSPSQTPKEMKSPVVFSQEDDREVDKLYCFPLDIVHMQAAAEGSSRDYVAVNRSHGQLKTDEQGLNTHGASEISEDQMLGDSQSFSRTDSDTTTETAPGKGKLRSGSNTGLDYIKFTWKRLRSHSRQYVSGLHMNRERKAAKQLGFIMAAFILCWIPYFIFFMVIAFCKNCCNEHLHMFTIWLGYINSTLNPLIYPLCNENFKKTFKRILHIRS

[4] = target: T1, 5-HT2C receptors (Homo sapiens, UniProt P28335); details: cited from earlier work
T1 sequence (P28335 33-458): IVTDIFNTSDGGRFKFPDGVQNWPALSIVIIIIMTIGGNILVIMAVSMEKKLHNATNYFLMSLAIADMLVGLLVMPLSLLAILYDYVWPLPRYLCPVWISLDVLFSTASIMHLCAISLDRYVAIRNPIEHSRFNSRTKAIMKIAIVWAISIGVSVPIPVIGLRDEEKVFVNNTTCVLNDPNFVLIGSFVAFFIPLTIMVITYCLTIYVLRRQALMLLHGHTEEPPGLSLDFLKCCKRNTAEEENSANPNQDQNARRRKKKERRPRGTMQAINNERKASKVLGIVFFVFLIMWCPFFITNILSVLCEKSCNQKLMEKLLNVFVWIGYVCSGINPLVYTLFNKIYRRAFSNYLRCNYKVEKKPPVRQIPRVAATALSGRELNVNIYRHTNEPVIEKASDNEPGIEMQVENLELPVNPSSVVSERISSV

[5] = system: muscarinic receptors; details: cited from earlier work
[6] = free base form; in water and in many organic solvents; cited from earlier work
[7] = hydrochloride salt of U.S. Pat. No. 7,183,282; cited from earlier work
[8] = hydrochloride salt of U.S. Pat. No. 7,183,282; cited from earlier work; remark: listed apart in the source

With `CN1CCN2c3c(cccc31)C1CN(CCCC(=O)c3ccc(F)cc3)CCC12.NC(=O)c1ccncc1` (stereo not shown) the “Hygroscopicity (%)” value [1] was 0.2%, the “hygroscopicity (in words)” value [1] was “not hygroscopic” and the mass uptake ([1]; at 95 RH %) was 0.2%.

For `CN1CCN2c3c(cccc31)[C@@H]1CN(CCCC(=O)c3ccc(F)cc3)CC[C@@H]12` [ITI-007, 1-(4-fluoro-phenyl)-4-((6bR,10aS)-3-methyl-2,3,6b,9,10,10a-hexahydro-1H,7H-pyrido[3′,4′:4,5]pyrrolo[1,2,3-de]quinoxalin-8-yl)-butan-1-one], the solubility [2] is listed as “poorly soluble”, the binding [3] is listed as “negligible binding” and the binding [4] is listed as “negligible binding”. The binding [5] was “negligible binding” and the solubility [6] was “poor solubility”.

In the case of `CN1CCN2c3c(cccc31)C1CN(CCCC(=O)c3ccc(F)cc3)CCC12.Cl` (stereo not shown) [hydrochloride salt form of ITI-007], the hygroscopicity [7] is listed as “hygroscopic” and the stability [8] is listed as “poor stability”.
